Earlier results, collected in PMC4198332 (Chembiochem : a European journal of chemical biology, 2014).

Assays:
[1] = system: Methicillin-resistant S. aureus (MRSA) (ATCC 33591); settings: included for comparison
[2] = system: Methicillin-resistant S. epidermidis (MRSE) (RP62A); settings: included for comparison
[3] = system: Vancomycin-resistant E. faecalis (ATCC 700802); settings: included for comparison
[4] = system: P. aeruginosa (ATCC 27853); settings: included for comparison
E. coli (ATCC 25922) = settings: included for comparison
[5] = system: human red blood cells (hRBCs)

Pexiganan
MIC MRSA (+) [1]: 16 µg/mL | MIC MRSE (+) [2]: 8 µg/mL | MIC E. faecalis (+) [3]: 32 µg/mL | MIC P. Aeruginosa (−) [4]: 16 µg/mL | MIC E. coli (−) (E. coli (ATCC 25922)): 8 µg/mL | Hemolysis HC50 [5]: --/120 μg/mL
